# Columns and labels:
# [1] = test system: bedstraw; assay: Test B pre/postemergence bedstraw; format: in vivo, Galium aparine
# Procedure, shortened: (§1)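 Response is a visual 0-to-10 score relative to untreated plants, where 0 means no effect and 10 means complete control, taken twelve to sixteen days after application. Treatments went onto soil at planting and onto foliage of 1- to 4-leaf plants, using a surfactant-containing non-phytotoxic solvent.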
# [2] = test system: giant foxtail; assay: Test B pre/postemergence giant foxtail; format: in vivo, Setaria faberii
# Procedure, shortened: as §1
# [3] = test system: corn; assay: Test B pre/postemergence corn; format: in vivo, Zea mays
# Procedure, shortened: as §1
# [4] = test system: blackgrass; assay: Test B pre/postemergence blackgrass; format: in vivo, Alopecurus myosuroides
# Procedure, shortened: as §1
# [5] = test system: cocklebur; assay: Test B pre/postemergence cocklebur; format: in vivo, Xanthium strumarium
# Procedure, shortened: as §1
# [6] = test system: velvetleaf; assay: Test B pre/postemergence velvetleaf; format: in vivo, Abutilon theophrasti
# Procedure, shortened: as §1
# [7] = test system: sugar beet; assay: Test B pre/postemergence sugar beet; format: in vivo, Beta vulgaris
# Procedure, shortened: as §1
# [8] = test system: crabgrass; assay: Test B pre/postemergence crabgrass; format: in vivo, Digitaria sanguinalis
# Procedure, shortened: as §1
# [9] = test system: soybean; assay: Test B pre/postemergence soybean; format: in vivo, Glycine max
# Procedure, shortened: as §1
# [10] = test system: pigweed; assay: Test B pre/postemergence pigweed; format: in vivo, Amaranthus retroflexus
# Procedure, shortened: as §1
# [11] = test system: purple nutsedge; assay: Test B pre/postemergence purple nutsedge; format: in vivo, Cyperus rotundus
# Procedure, shortened: as §1
# [12] = test system: rice; assay: Test B flood test rice; format: in vivo, Oryza sativa
# Procedure, shortened: (§2)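 Flood test on plants grown to the 2-leaf stage; treated plants kept in greenhouse twelve to sixteen days, then visually rated against controls on a 0 (no effect) to 10 (complete control) scale.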
# [13] = test system: duck salad; assay: Test B flood test duck salad; format: in vivo, Heteranthera limosa
# Procedure, shortened: as §2
# [14] = test system: wild oat; assay: Test B pre/postemergence wild oat; format: in vivo, Avena fatua
# Procedure, shortened: as §1
# [15] = test system: wheat; assay: Test B pre/postemergence wheat; format: in vivo, Triticum aestivum
# Procedure, shortened: as §1
# [16] = test system: surinam grass; assay: Test B pre/postemergence surinam grass; format: in vivo, Brachiaria decumbens
# Procedure, shortened: as §1
# [17] = Postemergence, Rate 62 g/ha, scale of 0 to 10, 0 is no effect, 10 is complete control
# [18] = Postemergence, Rate 125 g/ha, scale 0 to 10, 0 is no effect, 10 is complete control
# [19] = Postemergence, Rate 500 g/ha, scale of 0 to 10 where 0 is no effect and 10 is complete control
# [20] = Preemergence, Rate 62 g/ha, scale 0 to 10 (0 no effect, 10 complete control)
# [21] = Preemergence, Rate 125 g/ha, scale 0 to 10, 0 is no effect, 10 is complete control
# [22] = Preemergence, Rate 500 g/ha, scale of 0 to 10 where 0 is no effect and 10 is complete control
# [23] = Rate 250 g/ha, Postemergence, scale of 0 to 10 where 0 is no effect and 10 is complete control
# [24] = Rate 62 g/ha, flood test species, Pre-emergence, visual evaluation after twelve to sixteen days
# [25] = Rate 125 g/ha, under heading Pre-emergence, flood test species, visual evaluation after twelve to sixteen days
# [26] = Rate 250 g/ha, Pre-emergence (flood test species), scale 0 to 10, 0 is no effect, 10 is complete control
# [27] = Rate 500 g/ha, Pre-emergence section of Table B, 0 to 10 scale (0 no effect, 10 complete control)
smiles,measurement,setting,value
CCCCn1c(=O)on(C(=O)N(c2ccccc2)C(C)C)c1=O [Compound 556],Bedstraw plant response rating,[1]; [17],0
same,Bedstraw plant response rating,[1]; [18],0
same,"Plant response rating, Bedstraw",[1]; [19],0
same,Bedstraw plant response rating,[1]; [20],0
same,Bedstraw plant response rating,[1]; [21],0
same,Bedstraw plant response rating (0 to 10 scale),"[1]; Preemergence, Rate 250 g/ha",0
same,Bedstraw plant response rating,[1]; [22],0
same,"Plant response rating, Bedstraw",[1]; [23],0
same,Giant foxtail plant response rating,[2]; [17],4
same,Giant foxtail plant response rating,[2]; [18],7
same,"Plant response rating, Giant foxtail",[2]; [19],9
same,Giant foxtail plant response rating,[2]; [20],9
same,Giant foxtail plant response rating,[2]; [21],9
same,Giant foxtail plant response rating (0 to 10 scale),"[2]; Preemergence, Rate 250 g/ha",10
same,Giant foxtail plant response rating,[2]; [22],10
same,"Plant response rating, Giant foxtail",[2]; [23],9
same,Corn plant response rating,[3]; [17],0
same,Corn plant response rating,[3]; [18],0
same,"Plant response rating, Corn",[3]; [19],0
same,Corn plant response rating,[3]; [20],0
same,Corn plant response rating,[3]; [21],0
same,Corn plant response rating (0 to 10 scale),"[3]; Preemergence, Rate 250 g/ha",0
same,Corn plant response rating,[3]; [22],0
same,"Plant response rating, Corn",[3]; [23],0
same,Blackgrass plant response rating,[4]; [17],0
same,Blackgrass plant response rating,[4]; [18],3
same,"Plant response rating, Blackgrass",[4]; [19],6
same,Blackgrass plant response rating,[4]; [20],6
same,Blackgrass plant response rating,[4]; [21],9
same,Blackgrass plant response rating (0 to 10 scale),"[4]; Preemergence, Rate 250 g/ha",10
same,Blackgrass plant response rating,[4]; [22],10
same,"Plant response rating, Blackgrass",[4]; [23],3
same,Cocklebur plant response rating,[5]; [17],0
same,Cocklebur plant response rating,[5]; [18],0
same,"Plant response rating, Cocklebur",[5]; [19],0
same,Cocklebur plant response rating,[5]; [20],0
same,Cocklebur plant response rating,[5]; [21],0
same,Cocklebur plant response rating (0 to 10 scale),"[5]; Preemergence, Rate 250 g/ha",0
same,Cocklebur plant response rating,[5]; [22],0
same,"Plant response rating, Cocklebur",[5]; [23],0
same,Velvetleaf plant response rating,[6]; [17],0
same,"Plant response rating, Velvetleaf",[6]; [19],2
same,Velvetleaf plant response rating,[6]; [20],0
same,Velvetleaf plant response rating,[6]; [21],2
same,Velvetleaf plant response rating (0 to 10 scale),"[6]; Preemergence, Rate 250 g/ha",3
same,Velvetleaf plant response rating,[6]; [22],3
same,"Plant response rating, Velvetleaf",[6]; [23],0
same,Sugarbeets plant response rating,[7]; [17],0
same,"Plant response rating, Sugarbeets",[7]; [19],0
same,Sugarbeets plant response rating,[7]; [20],0
same,Sugarbeets plant response rating,[7]; [21],0
same,Sugarbeets plant response rating (0 to 10 scale),"[7]; Preemergence, Rate 250 g/ha",0
same,Sugarbeets plant response rating,[7]; [22],0
same,"Plant response rating, Sugarbeets",[7]; [23],0
same,Crabgrass plant response rating,[8]; [17],0
same,Crabgrass plant response rating,[8]; [18],2
same,"Plant response rating, Crabgrass",[8]; [19],2
same,Crabgrass plant response rating,[8]; [20],9
same,Crabgrass plant response rating,[8]; [21],9
same,Crabgrass plant response rating (0 to 10 scale),"[8]; Preemergence, Rate 250 g/ha",9
same,Crabgrass plant response rating,[8]; [22],10
same,"Plant response rating, Crabgrass",[8]; [23],2
same,Soybean plant response rating,[9]; [17],0
same,"Plant response rating, Soybean",[9]; [19],8
same,Soybean plant response rating,[9]; [20],0
same,Soybean plant response rating,[9]; [21],0
same,Soybean plant response rating (0 to 10 scale),"[9]; Preemergence, Rate 250 g/ha",0
same,Soybean plant response rating,[9]; [22],0
same,"Plant response rating, Soybean",[9]; [23],3
same,Redroot pigweed plant response rating,[10]; [17],3
same,"Plant response rating, Redroot pigweed",[10]; [19],4
same,Redroot pigweed plant response rating,[10]; [20],0
same,Redroot pigweed plant response rating,[10]; [21],5
same,Redroot pigweed plant response rating (0 to 10 scale),"[10]; Preemergence, Rate 250 g/ha",5
same,Redroot pigweed plant response rating,[10]; [22],5
same,"Plant response rating, Redroot pigweed",[10]; [23],3
same,Nutsedge plant response rating,[11]; [17],0
same,Nutsedge plant response rating,[11]; [18],0
same,"Plant response rating, Nutsedge",[11]; [19],0
same,Nutsedge plant response rating,[11]; [20],0
same,Nutsedge plant response rating,[11]; [21],0
same,Nutsedge plant response rating (0 to 10 scale),"[11]; Preemergence, Rate 250 g/ha",0
same,Nutsedge plant response rating,[11]; [22],0
same,"Plant response rating, Nutsedge",[11]; [23],0
same,"Plant response rating, Rice (0 to 10 scale, 0 is no effect, 10 is complete control)",[12]; [24],0
same,"Rice plant response rating (0 to 10 scale, 0 is no effect, 10 is complete control)",[12]; [25],0
same,Rice plant response rating,[12]; [26],0
same,Rice plant response rating,[12]; [27],0
same,"Plant response rating, Ducksalad (0 to 10 scale, 0 is no effect, 10 is complete control)",[13]; [24],0
same,"Ducksalad plant response rating (0 to 10 scale, 0 is no effect, 10 is complete control)",[13]; [25],0
same,Ducksalad plant response rating,[13]; [26],0
same,Ducksalad plant response rating,[13]; [27],0
same,Wild oats plant response rating,[14]; [17],2
same,"Plant response rating, Wild oats",[14]; [19],2
same,Wild oats plant response rating,[14]; [20],0
same,Wild oats plant response rating,[14]; [21],0
same,Wild oats plant response rating (0 to 10 scale),"[14]; Preemergence, Rate 250 g/ha",4
same,Wild oats plant response rating,[14]; [22],6
same,"Plant response rating, Wild oats",[14]; [23],2
same,Wheat plant response rating,[15]; [17],0
same,"Plant response rating, Wheat",[15]; [19],3
same,Wheat plant response rating,[15]; [20],0
same,Wheat plant response rating,[15]; [21],0
same,Wheat plant response rating (0 to 10 scale),"[15]; Preemergence, Rate 250 g/ha",3
same,Wheat plant response rating,[15]; [22],4
same,"Plant response rating, Wheat",[15]; [23],2
same,B. signalgrass plant response rating,[16]; [17],0
same,B. signalgrass plant response rating,[16]; [18],2
same,"Plant response rating, B. signalgrass",[16]; [19],7
same,B. signalgrass plant response rating,[16]; [20],6
same,B. signalgrass plant response rating,[16]; [21],7
same,"B. signalgrass plant response rating (0 to 10 scale, 0 is no effect, 10 is complete control)","[16]; Preemergence, Rate 250 g/ha",7
same,B. signalgrass plant response rating,[16]; [22],9
same,"Plant response rating, B. signalgrass",[16]; [23],4

# From patent US6737383B1, “Herbicidal oxadiazolidines” (priority 1999, dated 2004)
